Broadly, the pIC50 is the negative decadic logarithm of the IC50, by convention in mol/L. Low readings indicate a high IC50, high ones a low IC50. Usually inhibition stands for the share of the control response that was lost under treatment. Lower therefore signals little suppression.

pIC50: −log10 of the molar value.

This note sets out measurements from the Kinase Knowledgebase extract (Sharma et al. 2016).

MAPK14 (human), sequence (Q16539 whole entry, looked up): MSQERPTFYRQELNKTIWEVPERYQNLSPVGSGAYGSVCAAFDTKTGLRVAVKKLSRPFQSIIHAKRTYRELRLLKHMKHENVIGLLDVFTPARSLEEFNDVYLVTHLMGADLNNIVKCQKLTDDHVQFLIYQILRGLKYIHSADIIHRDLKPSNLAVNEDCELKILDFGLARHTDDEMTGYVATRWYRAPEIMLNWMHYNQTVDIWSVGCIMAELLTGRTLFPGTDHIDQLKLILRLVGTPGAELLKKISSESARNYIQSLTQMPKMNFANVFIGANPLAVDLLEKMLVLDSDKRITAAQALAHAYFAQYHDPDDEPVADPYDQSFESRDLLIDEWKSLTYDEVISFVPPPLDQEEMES

The first test has as its target MAPK14 (human) (UniProt Q16539). As to the kind of experiment: Inhibition of TNF-alpha Release from PBMC.
Settings: not given
For `Nc1ccn2c(-c3ccncn3)c(-c3ccc(F)cc3)nc2n1`, the pIC50 was 6.70.

In turn, `CS(=O)(=O)c1nccc(-c2c(-c3ccccc3)nc3nc(N)ccn23)n1` showed a pIC50 of 5.47.

Regarding `CS(=O)(=O)c1nccc(-c2c(-c3cccc(C(F)(F)F)c3)nc3nc(N)ccn23)n1`, the pIC50 is 6.28.

For the compound `Nc1ccn2c(-c3ccncc3)c(-c3cccc(C(F)(F)F)c3)nc2n1`, the pIC50 was 7.46.

Compound `Nc1ccn2c(-c3ccncc3)c(-c3cccc(F)c3)nc2n1` had a negative logarithm of the IC50 (pIC50) of 7.26.

In turn, `C[C@H](Nc1nccc(-c2c(-c3ccccc3)nc3nc(N)ccn23)n1)c1ccccc1` had a pIC50 of 9.40.

In turn, `CSc1nccc(-c2c(-c3ccc(F)cc3)nc3nc(N)ccn23)n1` had a pIC50 of 7.43.

`Nc1ccn2c(-c3ccncc3)c(-c3ccccc3)nc2n1` showed a pIC50 of 7.26.

With `C[C@H](Nc1nccc(-c2c(-c3ccc(F)cc3)nc3nc(N)ccn23)n1)C1CCCCC1`, the pIC50 is 9.00.

On to `Nc1ccn2c(-c3ccncc3)c(-c3cccc(Cl)c3)nc2n1`, for which the pIC50 is 6.79.

In the case of `C[C@H](Nc1nccc(-c2c(-c3cccc(C(F)(F)F)c3)nc3nc(N)ccn23)n1)c1ccccc1`, the pIC50 is 9.30.

Compound `Nc1ccn2c(-c3ccncc3)c(-c3ccc(F)cc3)nc2n1` gave a pIC50 of 7.31.

Regarding `COc1ccc(CNc2nccc(-c3c(-c4ccccc4)nc4nc(N)ccn34)n2)cc1`, the pIC50 is 7.85.

On to `Nc1ccn2c(-c3ccncc3)c(-c3ccc(F)c(Cl)c3)nc2n1`, for which the pIC50 is 7.68.

Compound `CSc1nccc(-c2c(-c3cccc(F)c3)nc3nc(N)ccn23)n1` showed a pIC50 of 8.00.

`CSc1nccc(-c2c(-c3cccc(C(F)(F)F)c3)nc3nc(N)ccn23)n1` had a pIC50 of 7.57. This pIC50 lies 0.43 log units lower than the previous one.

As to `Nc1ccn2c(-c3ccnc(N4CCCCC4)n3)c(-c3ccccc3)nc2n1`, the pIC50 was 8.10.

`Nc1ccn2c(-c3ccnc(NCc4ccccc4)c3)c(-c3cccc(C(F)(F)F)c3)nc2n1` gave a pIC50 of 8.40. Against the preceding compound, the pIC50 is 0.30 log units higher.

With `Nc1ccn2c(-c3ccnc4ccccc34)c(-c3ccc(F)cc3)nc2n1`, the pIC50 was 6.48.

Regarding `Nc1ccn2c(-c3ccncn3)c(-c3cccc(C(F)(F)F)c3)nc2n1`, the pIC50 is 6.56.

The subject of the next test is MAPK14 (Balb/c mice). As to the kind of experiment: Inhibition of TNF-alpha Release in Balb/c Mice. Particulars: dose or concentration not given here.
On to `Nc1ccn2c(-c3ccncn3)c(-c3ccc(F)cc3)nc2n1`, for which the inhibition was found to be 91%.

`CS(=O)(=O)c1nccc(-c2c(-c3cccc(C(F)(F)F)c3)nc3nc(N)ccn23)n1` came in with an inhibition of 10%.

In turn, `Nc1ccn2c(-c3ccncc3)c(-c3cccc(C(F)(F)F)c3)nc2n1` showed an inhibition of 99%.

The compound `Nc1ccn2c(-c3ccncc3)c(-c3cccc(F)c3)nc2n1` displayed an inhibition of 100%.

In the case of `C[C@H](Nc1nccc(-c2c(-c3ccccc3)nc3nc(N)ccn23)n1)c1ccccc1`, the inhibition came to 100%.

`CSc1nccc(-c2c(-c3ccc(F)cc3)nc3nc(N)ccn23)n1` returned an inhibition of 68%.

Compound `Nc1ccn2c(-c3ccncc3)c(-c3ccccc3)nc2n1` gave an inhibition of 100%.

As to `C[C@H](Nc1nccc(-c2c(-c3ccc(F)cc3)nc3nc(N)ccn23)n1)C1CCCCC1`, the inhibition is 74%.

Take `COc1nccc(-c2c(-c3ccccc3)nc3nc(N)ccn23)n1`: the inhibition was determined as 87%.

With `Nc1ccn2c(-c3ccncc3)c(-c3cccc(Cl)c3)nc2n1`, the inhibition was 47%.

`C[C@H](Nc1nccc(-c2c(-c3cccc(C(F)(F)F)c3)nc3nc(N)ccn23)n1)c1ccccc1` had an inhibition of 97%.

Take `C[C@H](Nc1cc(-c2c(-c3ccc(F)cc3)nc3nc(N)ccn23)ccn1)c1ccccc1`: the inhibition was determined as 97%.

As to `Nc1ccn2c(-c3ccncc3)c(-c3ccc(F)cc3)nc2n1`, the inhibition was 100%.

The compound `Nc1ccn2c(-c3ccncc3)c(-c3ccc(F)c(Cl)c3)nc2n1` registered an inhibition of 100%.

For `CSc1nccc(-c2c(-c3cccc(F)c3)nc3nc(N)ccn23)n1`, the inhibition is 51%.

Consider `CSc1nccc(-c2c(-c3cccc(C(F)(F)F)c3)nc3nc(N)ccn23)n1`, for which the inhibition stood at 38%.

Turning to `Nc1ccn2c(-c3ccnc(NCc4ccccc4)c3)c(-c3ccc(F)cc3)nc2n1`, the inhibition stood at 42%.

Take `Nc1ccn2c(-c3ccnc(N4CCCCC4)n3)c(-c3ccccc3)nc2n1`: the inhibition came to 63%.

In the case of `Nc1ccn2c(-c3ccncn3)c(-c3ccccc3)nc2n1`, the inhibition was found to be 73%.

In the case of `Nc1ccn2c(-c3ccnc(NCc4ccccc4)c3)c(-c3cccc(C(F)(F)F)c3)nc2n1`, the inhibition is 19%.

On to `CSc1nccc(-c2c(-c3ccccc3)nc3nc(N)ccn23)n1`, for which the inhibition worked out at 23%.

Compound `Nc1ccn2c(-c3ccnc4ccccc34)c(-c3ccc(F)cc3)nc2n1` came in with an inhibition of 26%.

For `Nc1ccn2c(-c3ccncn3)c(-c3cccc(C(F)(F)F)c3)nc2n1`, the inhibition came out at 85%.
